Laboratory results as given in ChEMBL document CHEMBL3507680, “University of Dundee, Gates Library screen for HepG2 cell viability”.

Test: Human HepG2 cell viability assay in 384 well format
Type: toxicity, cell-based
Set-up: dose 125 nL, time 70.5 hour; cytotoxicity at 70.5 h: concentration not given beside the values
Conditions: HepG2 cells, read-out: Inhibition

| SMILES | cytotoxicity at 70.5 h [%] |
| --- | --- |
| CCOC(=O)C1(Cc2cccc(OC)c2)CCN(Cc2ccon2)CC1 | -11.6 |
| CC(C)c1cc(NCc2csc(C(C)C)n2)nc(N)n1 | 24.3 |
| CC(C)(O)c1cn(C2CCN(C(=O)CCc3ccncc3)CC2)nn1 | -4.73 |
| Cc1[nH]c2ccccc2c1CCNc1ncnc2c1CCNCC2 | 0.111 |
| O=c1cnc2ccccc2n1CCCn1cccn1 | 24.6 |
| CCN1CC(C(=O)N2CC(Oc3ccccc3Cl)C2)CC1=O (configuration not stated) | -1.71 |
| Cc1cnc(NCCCN2CCCCC2CO)nc1 (configuration not stated) | -1.85 |
| CCC(CO)N(Cc1ccsc1)CC1CC1 (configuration not stated) | -4.03 |
| Cc1nc[nH]c1CNCc1cccnc1N(C)C1CCCCC1 | -6 |
| NS(=O)(=O)c1ccc(F)c(C(=O)NCCSC2CCCCC2)c1 | -9.09 |
| O=C(c1cnc2c(c1)CCC2)N1CCCC(CO)(CC2CC2)C1 (configuration not stated) | -9.59 |
| O=C(c1cnc(COc2ccccc2)nc1O)N1CCC(F)(F)CC1 | -5.82 |
| Cc1nc(N(C)C)ncc1C(=O)NCCCn1nccc1C1CC1 | 6.49 |
| O=C(CN1CCCC1c1nc(-c2ccccn2)no1)N1CCOCC1 (configuration not stated) | -7.89 |
| CCN(C)Cc1n[nH]c(=O)n1-c1ccc(C)c(C)c1 | -11.7 |
| O=C(CN1CCC2(CCCN(CCO)C2=O)C1)NCCc1ccccc1 (configuration not stated) | 11.6 |
| CCN(CCOC)C(=O)CCc1scnc1C | -2.82 |
| CN(Cc1ccc2nsnc2c1)CC1(O)CNCCOC1 (configuration not stated) | -6.32 |
| Nc1ccc(C(=O)N2CCC(Oc3cccc(C(F)(F)F)c3)CC2)cn1 | -0.861 |
| COCCN1CC(c2nc(CSC)no2)CCC1=O (configuration not stated) | 2.97 |
| N#Cc1ccc(Oc2cc(F)c(CN3CCCC3)c(F)c2)nc1 | -2.2 |
| CC(C)[C@H]1CN(S(C)(=O)=O)C[C@@H]1NC(=O)c1ccnc(N)c1 | -1.08 |
| COCc1noc(-c2ccc(N3CCC[C@H]3CO)nc2)n1 | -7.06 |

| SMILES | cytotoxicity at 70.5 h [%] |
| --- | --- |
| Nc1cc(-c2cc[nH]n2)nc(N2CCCC2)n1 | 5.5 |
| Cc1ncsc1CCN(C)C(=O)CN1C(=O)OC[C@@H]1c1ccccc1 | 4.46 |
| O=C1CCCCCN1CCc1nc(-c2cccnn2)no1 | -6.78 |
| CN1CCN(c2cccc(NC(=O)NCc3csc(N(C)C)n3)c2)C1=O | 35.3 |
| CC1c2cccn2CCN1C(=O)CCc1nc(-c2ccccc2)no1 (configuration not stated) | -5.32 |
| CC(C)Cc1ncc2c(n1)CN(c1nccc(NC(C)C)n1)C2 | 2.52 |
| CNc1ncccc1C(=O)N1CCN(C)C2(CCN(C)CC2)C1 | -7.09 |
| Cc1ccc(CSc2nc(N)cc(NCCS(=O)(=O)N(C)C)n2)cc1 | -2.68 |
| CCCc1cc(C(=O)N(C)Cc2ccc(OC)c3ncccc23)n(C)n1 | 2 |
| O[C@H]1Cc2ccccc2[C@H]1n1ccnc1-c1cc2n(n1)CCNC2 | -2.39 |
| COCCN1C[C@H]2CC[C@@H]1CN(C(=O)CCn1cc(Cl)cn1)C2 | -10.6 |
| Cc1ccc2nc(C(=O)N3C[C@@H](C(=O)O)[C@H](c4cccnc4)C3)cn2c1 | -5.46 |
| N[C@H]1CN(C(=O)c2ccccc2OCCc2ccccc2)C[C@@H]1C1CC1 | -8.08 |
| CCn1cnnc1Cn1cccc(C(F)(F)F)c1=O | 4.98 |
| CCc1cnc(C)nc1NC(CC)c1cnn(C)c1 (configuration not stated) | -2.39 |
| O=C(O)[C@@H]1CN(C(=O)c2ccc3[nH]nnc3c2)C[C@H]1c1ccccc1 | -4.96 |
| CC(C)N1CCCC(C(=O)N2CCN(c3cccc(C(=O)O)c3)CC2)C1 (configuration not stated) | 23.2 |
| O[C@@H]1CN(c2nc3ccccc3o2)CC[C@H]1c1ccc2c(c1)OCO2 | 14.9 |
| CN1CCCCCC1C(=O)N1CCN(c2ccccc2C#N)CC1 (configuration not stated) | -8.6 |
| N#Cc1cccc(NC(=O)N2CCC3(CCC(=O)N(C4CC4)C3)CC2)c1 | -2.97 |
| CCCN1CCC(N2CCC(Cn3cc(C4CC4)nn3)CC2)CC1 | -8.35 |
| Nc1nc2c(c(N3CCOCC3)n1)CCN(C(=O)c1ccc[nH]1)CC2 | -7.85 |
| CCCc1nnc(N2CCCC(c3nnc(Cn4ccnc4)n3C)C2)s1 (configuration not stated) | -2.6 |

| SMILES | cytotoxicity at 70.5 h [%] |
| --- | --- |
| Cc1nc(CNc2nc3c(s2)c(C)nn3C)cs1 | -8.75 |
| O=C(NCCc1cc(=O)[nH]cn1)c1[nH]nc2c1CCCC2 | -5.79 |
| COCC(=O)N[C@H]1C[C@@H](C(=O)NCCc2cccc(Cl)c2)N(C)C1 | -13.3 |
| CCn1c(C2CCN(C(=O)CCc3cc(Cl)no3)CC2)nn(C)c1=O | -6.98 |
| CN1C(=O)c2ccc(C(=O)N(Cc3cnn(C)c3)C3CC3)cc2C1=O | -16.5 |
| O=C(NC1CCOCC1)C1CC(=O)N(Cc2ccccn2)C1 (configuration not stated) | -2.88 |
| O=C(CSc1ccccc1)N1CCc2c(ncnc2N2CCOCC2)C1 | 0.558 |
| CC(C)n1cnnc1Cn1c(=O)cnc2ccccc21 | -4.23 |
| Cc1nc[nH]c1-c1nccn1CCN1CCOC1=O | -8.03 |
| COc1nc(C)c(C(=O)NCc2cc(N3CCOCC3)ncn2)s1 | -2.68 |
| CC1=C(C(=O)NCc2cccnc2-n2cnc3ccccc32)OCCO1 | -0.825 |
| Cc1cccc(C(C(=O)NCC2(O)CCCCC2)N(C)C)c1 (configuration not stated) | 14.2 |
| CCCc1nc(CN(CC)C(=O)c2ccc(OC)c(OC)c2)no1 | 25.6 |
| CC(C)(C)CN1CCC(c2nnc(Cn3ccnc3)n2C2CC2)CC1 | -3.87 |
| CCC[C@H]1CN(c2nc(CO)cs2)C[C@@H]1NC(=O)C1CCC1 | -5.73 |
| Cc1ccccc1CC1(CO)CCCN(c2ncnc3sccc23)C1 (configuration not stated) | 31.4 |
| COc1ccc2nc(CCNC(=O)c3cc(CC(C)C)no3)[nH]c2c1 | -15.4 |
| CC(=O)NCC1CCC2(CCN(c3ncc(C(C)=O)c(C)n3)CC2)O1 (configuration not stated) | -2.5 |
| Cc1nc(NCC(O)CN2CCCCCC2)c2c(C)nn(C)c2n1 (configuration not stated) | -8.64 |
| Cc1nc(NC(=O)N2CCCC(C(F)(F)F)C2)nn1C (configuration not stated) | -8 |
| CN(C)CCN(C)C1CCN(C(C(=O)O)c2ccc(F)c(Cl)c2)CC1 (configuration not stated) | 5.36 |
| Cc1nc(N)ncc1C(=O)N1CCCC(CCc2ccc(F)c(F)c2)C1 (configuration not stated) | -16.6 |
| O=S1(=O)C[C@@H]2[C@H](C1)N(Cc1ncc[nH]1)CCN2CCCc1ccccc1 | -1.68 |

| SMILES | cytotoxicity at 70.5 h [%] |
| --- | --- |
| CCOCCn1c(=O)n(Cc2ccc(F)cc2)c2ncc(C(=O)O)cc21 | -4.53 |
| COC(C)(C)CC(C)NCc1cn2ccccc2n1 (configuration not stated) | -16.8 |
| CCc1n[nH]c(C(=O)N2CCC3(CCCN(CCOC)C3=O)C2)c1C (configuration not stated) | -9.48 |
| COc1cc2nc(NCCNS(C)(=O)=O)cc(C)c2cc1OC | -0.473 |
| COc1ccc(OC)c(C2CCN(c3ccc4cc[nH]c4n3)C2)c1 (configuration not stated) | -6.46 |
| CCC(C)N(Cc1cccnc1)Cc1cc2c(cc1Cl)OCO2 (configuration not stated) | -1.59 |
| O=C(c1cnc(-c2cccnc2)nc1)N1CCSCC1 | 21.6 |
| CC(C)c1noc(Cn2ncn3cccc3c2=O)n1 | -6.57 |
| O=C1CC[C@H]2CN(c3ncc(F)cn3)CC[C@H]2N1CCc1c[nH]cn1 | -8.52 |
| CN(Cc1nccn1C)c1ccc(-c2nccn2C)nn1 | 18.2 |
| COc1ccc(C(=O)C2CCCN(c3cnccn3)C2)c(C)c1 (configuration not stated) | -8.1 |
| CC(C)C(=O)N1CCC(c2nc3c([nH]2)CCCNC3=O)CC1 | -6.35 |
| CSCc1noc(CN(C)C(C)c2nc(C)sc2C)n1 (configuration not stated) | 6.01 |
| CCOc1ccnc(N[C@@H](Cc2ccccc2)C(N)=O)n1 | -6.36 |
| CCCC(=O)N1CCCC(Cn2cc(-c3ccc(F)cc3)nn2)C1 (configuration not stated) | -11.1 |
| O=C(c1ncccc1O)N1CCc2c(ncnc2N2CCOCC2)C1 | -4.02 |
| CC(Cc1cccnc1)Nc1ncnc2cccc(F)c12 (configuration not stated) | 1.44 |
| Cc1cc2ccccc2n1CCC(=O)N1CCC[C@H]1C(N)=O | -6.97 |
| Cc1nn(C)cc1Cn1c(=O)c(C)nc2ccccc21 | -6.18 |
| O=c1[nH]nc(CNCc2ccc(OC34CCCN(CC3)C4)cc2)[nH]1 (configuration not stated) | -4.91 |
| CCCSCC(=O)N1CCCC2(CCC(=O)N(CCc3c[nH]cn3)C2)C1 (configuration not stated) | -5.03 |
| NC1CCN(S(=O)(=O)c2ccc(C(=O)N3CCSCC3)cc2)C1 (configuration not stated) | -9.37 |
| Cc1ccc(C)c2c(C)c(C(=O)NCCCn3cnnc3)[nH]c12 | -6.86 |

| SMILES | cytotoxicity at 70.5 h [%] |
| --- | --- |
| CNC(=O)C1CCN(Cc2nc(-c3ccc(SC)cc3)oc2C)C1 (configuration not stated) | -6.93 |
| OCCOc1ccccc1CN1CCCC(O)(CO)C1 (configuration not stated) | 9.78 |
| CSCC[C@@H](CO)Nc1ccc(-c2nc(-c3ccccc3C)no2)cn1 | -6.4 |
| CS(=O)(=O)N1CCCC1C(=O)Nc1cnc2n1CCCC2 (configuration not stated) | -20.4 |
| CNC(=O)c1cn2cc(-c3ccc(F)cc3)n(CC=C(C)C)c(=O)c2n1 | 19.4 |
| Cc1cc(CN(C)C(=O)C2CCC(=O)N(CC3CCCCC3)C2)n[nH]1 (configuration not stated) | -8.5 |
| CN(Cc1noc2c1CCCC2)C(=O)Cn1c(=O)cnc2ccccc21 | -12.8 |
| O=C(c1cc(F)cc(Cl)c1)N1CCN(CCO)[C@@H]2CS(=O)(=O)C[C@@H]21 | -0.458 |
| c1csc(N2CCN(Cc3cc4n(n3)CCNC4)CC2)n1 | 1.93 |
| Cc1cnccc1-n1nc(C(C)C)nc1CCN(C)S(C)(=O)=O | -1.14 |
| O=C1N(Cc2cccc(F)c2F)CCCC1(O)CNCc1ccccn1 (configuration not stated) | -2.1 |
| O=C(c1ccc(C2CCCN2C(=O)c2ccoc2)s1)N1CCOCC1 (configuration not stated) | -1.44 |
| CC(=O)Nc1ccc(Cl)c(C(=O)N(C)C(C)c2nccs2)c1 (configuration not stated) | -3.55 |
| CCOC(=O)N1CCC(NC(=O)c2cccc(C3CCCNC3)c2)CC1 (configuration not stated) | -24.4 |
| O=C(c1cccnc1)N1C[C@@H]2CC[C@H](C1)N(Cc1ccc(F)cc1Cl)C2 | 2.53 |
| CN1CC(c2ccccc2)CC2(CCN(Cc3ncc[nH]3)CC2)C1 (configuration not stated) | -9.18 |
| O=C(CCCN1CCCCC1)N[C@H](C(=O)O)c1cccc(F)c1F | -6.96 |
| Oc1ccc(-c2c(-c3ccccc3)ncn2C2CCNC2)cc1 (configuration not stated) | 6.28 |
| Cc1cncc(C(=O)N2CCCC(O)(CO)C2)c1 (configuration not stated) | -7.18 |
| CCN(CC)C(CNS(=O)(=O)NCc1ccccc1)c1ccco1 (configuration not stated) | -2.25 |
